Data on six compounds can be found in patent publication US20170313808A1, “BIOACTIVE POLYMERIC LIQUID FORMULATIONS OF ABSORBABLE, SEGMENTED APLIPHATIC POLYURETHANE COMPOSITIONS” (priority 2008, published 2017).

For assay [1], the system named is S aureous. Briefly: Antibacterial testing with S aureous. The format is cell-based.
For assay [2], the system named is SKOV3. The assay is described as follows: Testing with ovarian cancer cell lines (SKOV3). The format is cell-based. The following applies: ovarian cancer cell line SKOV3.

In the case of `O=c1[nH]cc(F)c(=O)[nH]1` [5-Fluorouracil], the “Additional Uses and Properties” value in assay [1] is reported as “Antibacterial as per testing”.

As for `OC(Cn1cncn1)(Cn1cncn1)c1ccc(F)cc1F` [Fluconazole], in assay [2], the “Additional Uses and Properties” value is “Antineoplastic (as per testing”.

Regarding `Cc1oncc1C(=O)Nc1ccc(C(F)(F)F)cc1` [Leflunomide], in assay [2], the “Additional Uses and Properties” value is listed as “Antineoplastic, as per testing”.

As for `Clc1ccc(COC(Cn2ccnc2)c2ccc(Cl)cc2Cl)c(Cl)c1` (stereo not drawn) [Miconazole], the “Additional Uses and Properties” value in assay [2] is “Antineoplastic (as per testing”.

For `CO[C@@]12[C@H](COC(N)=O)C3=C(C(=O)C(C)=C(N)C3=O)N1C[C@@H]1N[C@@H]12` [Mitomycin], in assay [2], the “Additional Uses and Properties” value is “Antineoplastic, as per testing”.

As to `CC(=O)O[C@H]1C(=O)[C@@]2(C)[C@H]([C@H](OC(=O)c3ccccc3)[C@]3(O)C[C@H](OC(=O)[C@H](O)[C@@H](NC(=O)c4ccccc4)c4ccccc4)C(C)=C1C3(C)C)[C@]1(OC(C)=O)CO[C@@H]1C[C@@H]2O` [Paclitaxel], in assay [1], the “Additional Uses and Properties” value was “Antibacterial as per testing”.
